Test results from PubChem BioAssay (NCI).
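Results reflect a 48-hour exposure of cells in 96-well plates to compound at five concentrations. TGI denotes the concentration required for complete inhibition of growth.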

Tests used:
Assay in all cases: inhibition of tumour cell growth, NCI panel, 48 h
[1] = system: UACC-257 melanoma
[2] = system: COLO 205 colon
[3] = system: SF-295 CNS
[4] = system: HOP-92 NSCLC
[5] = system: DMS 273 small cell lung
[6] = system: HOP-18 NSCLC
[7] = system: NCI-H522 lung
[8] = system: HOP-62 NSCLC
[9] = system: UACC-62 melanoma
[10] = system: K-562 leukemia
[11] = system: HT29 colon
[12] = system: CAKI-1 renal
[13] = system: A498 renal
[14] = system: CCRF-CEM leukemia
[15] = system: RXF 393 renal
[16] = system: LXFL 529 NSCLC
[17] = system: ACHN renal
[18] = system: NCI-H226 lung
[19] = system: DLD-1 colon
[20] = system: UO-31 renal
[21] = system: SNB-19 CNS
[22] = system: OVCAR-5 ovarian
[23] = system: SF-268 CNS
[24] = system: HCC-2998 colon
[25] = system: IGROV1 ovarian
[26] = system: NCI-H460 lung
[27] = system: RPMI-8226 leukemia
[28] = system: OVCAR-4 ovarian
[29] = system: HCT-116 colon
[30] = system: SK-MEL-5 melanoma
[31] = system: SW-620 colon
[32] = system: MALME-3M melanoma
[33] = system: OVCAR-3 ovarian
[34] = system: MOLT-4 leukemia
[35] = system: SNB-78 CNS
[36] = system: SK-MEL-2 melanoma
[37] = system: DMS 114 small cell lung
[38] = system: KM12 colon
[39] = system: NCI-H23 lung
[40] = system: A549 NSCLC
[41] = system: M14 melanoma
[42] = system: XF 498 CNS
[43] = system: TK-10 renal
[44] = system: SK-MEL-28 melanoma
[45] = system: KM20L2 colon
[46] = system: U251 CNS
[47] = system: EKVX NSCLC
[48] = system: OVCAR-8 ovarian
[49] = system: SNB-75 CNS
[50] = system: SK-OV-3 ovarian
[51] = system: M19-MEL melanoma
[52] = system: SF-539 CNS
[53] = system: LOX IMVI melanoma
[54] = system: HCT-15 colon
[55] = system: SR leukemia
[56] = system: 786-0 renal
[57] = system: HL-60(TB) leukemia
[58] = system: SN12C renal

## N#C/C(=C\c1cc2ccccc2c2ccccc12)c1ccccc1
[1]
  TGI: > 89 µM
[2]
  TGI: 10.6 µM
[3]
  TGI: 19.9 µM
[4]
  TGI: > 71.7 µM
[5]
  TGI: 8.73 µM
[6]
  TGI: > 61.2 µM
[7]
  TGI: > 29.9 µM
[8]
  TGI: 17.6 µM
[9]
  TGI: 28.9 µM
[10]
  TGI: 13.7 µM
[11]
  TGI: 18.1 µM
[12]
  TGI: > 37.8 µM
[13]
  TGI: 38.3 µM
[14]
  TGI: 36.2 µM
[15]
  TGI: 18.6 µM
[16]
  TGI: > 100 µM
[17]
  TGI: > 83.5 µM
[18]
  TGI: > 100 µM
[19]
  TGI: > 90.2 µM
[20]
  TGI: 57.7 µM
[21]
  TGI: 45.4 µM
[22]
  TGI: 98.6 µM
[23]
  TGI: > 53.9 µM
[24]
  TGI: 59.2 µM
[25]
  TGI: > 51.8 µM
[26]
  TGI: > 36.1 µM
[27]
  TGI: > 51.1 µM
[28]
  TGI: 34.6 µM
[29]
  TGI: 18.2 µM
[30]
  TGI: 19.7 µM
[31]
  TGI: 24.9 µM
[32]
  TGI: 19.5 µM
[33]
  TGI: > 25.6 µM
[34]
  TGI: 28 µM
[35]
  TGI: 34.2 µM
[36]
  TGI: 15.4 µM
[37]
  TGI: > 36.1 µM
[38]
  TGI: > 52.3 µM
[39]
  TGI: > 95 µM
[40]
  TGI: > 100 µM
[41]
  TGI: 30 µM
[42]
  TGI: 12.5 µM
[43]
  TGI: > 58.9 µM
[44]
  TGI: > 100 µM
[45]
  TGI: 13.8 µM
[46]
  TGI: 36.8 µM
[47]
  TGI: 75.2 µM
[48]
  TGI: > 100 µM
[49]
  TGI: 10.9 µM
[50]
  TGI: 39 µM
[51]
  TGI: > 100 µM
[52]
  TGI: 19.8 µM
[53]
  TGI: > 100 µM
[54]
  TGI: 39.4 µM
[55]
  TGI: 7.91 µM
[56]
  TGI: 18 µM
[57]
  TGI: 14.8 µM
[58]
  TGI: > 95.8 µM
